Assay results published in US20210046042A1, “SUBSTANCES AND COMPOSITIONS FOR THE USE IN THE TREATMENT OF ENDOMETRIOSIS AND ENDOMETRIOSIS ASSOCIATED SYMPTOMS” (SISTEMI SALUTE S.R.L., priority 2017, published 2021).
“Also recorded” adds a separate entry of the source.

System: patients affected by endometriosis, IV stage (deep endometriosis, adenomyosis and ovarian endometriosis)
Test: Clinical study on patients affected by endometriosis treated with Luteolin
Type: in vivo, human
Description: Clinical Study on Patients Affected by Endometriosis Treated with […]
A composition in powder for oral administration containing Luteolin (62.5 mg of extract of shells of peanuts standardized to 80% Luteolin) equal to 50 mg was prepared.
18 patients affected by endometriosis, IV stage, were identified, all of them with deep endometriosis, adenomyosis and ovarian endometriosis (endometriosis ovarian cysts larger than 3 cm), the disease diagnosis was placed with diagnostic protocol including vaginal and rectal explorations for the diagnosis of deep endometriosis, Nuclear magnetic resonance of pelvis with examination of resonance parameters for the diagnosis of adenomyosis, thickness of the neck-body junction area (JZ) of the uterus larger than 12 mm, exclusion criterion for adenomyosis thickness smaller than 8 mm, examination of the myometrium structure, examination of the myometrium thicknesses both of front and rear wall, hematic examinations comprising the marker Ca 125, the dosage of 17B-estradiol and of testosterone.
The first group constituted by 18 patients ingested 2 capsules per day, every twelve hours, for 45 days of the composition containing Luteolin 50 mg.
For the disease evaluation:
The dosage of 17B-estradiol
The dosage of testosterone
The Rectal examination for deep endometriosis
The rectal examination for deep endometriosis
The nuclear magnetic resonance of pelvis with contrast medium (gadolinium) were performed.
INCLUSION CRITERIA for experimentation
Not ingestion of pain-relieving drugs
Absence of anti-inflammatory drugs
Positive Vaginal examination
Positive rectal examination

[1] = 21st day of treatment, basal JZ>12 mm
[2] = study group, 21st day of treatment, basal VAS>=7

O=c1cc(-c2ccc(O)c(O)c2)oc2cc(O)cc(O)c12 [Luteolin, 2-(3,4-dihydroxyphenyl)-,5,7dihydroxy-4-chromenone]
Serum dosage of testosterone average value of the sample (21st day of treatment, basal 0.13 ng/ml): 0.15 ng/mL | RMN Adenomyosis JZ between 12 and 8 mm [1]: 5% | RMN Adenomyosis JZ<8 mm [1]: 95% | adenomyosis JZ (Luteolin 50 mg oral twice a day, 18 patients): < 12 mm | disease parameters (deep endometriosis, adenomyosis, ovarian endometriosis) (Luteolin 50 mg oral twice a day, 18 patients, IV stage): quick reduction; also recorded: quick decrease | average maximum diameter of the ovarian cysts (Luteolin 50 mg oral twice a day, 18 patients, from cm 5.34): 2.14 cm | side effects / voluntary suspensions of the treatment (Luteolin 50 mg oral twice a day, 45 days): No side effects | antigen marker Ca 125 (in words) (Luteolin 50 mg twice a day, all treated patients): reduced; also recorded: negativization | RMN ovarian cysts weighted average (maximum diameter) (after 21 days of therapy, basal cm 5.34): 2.14 | regression of the symptoms (after five days from the beginning of administration, constant for 45 days): almost disappeared | 17 Beta-Estradiol dosage average value of the sample (serum, 21st day of period, 21st day of treatment, basal 199 pg/ml): 196 pg/mL | Ca 125 dosage: average value (serum, 21st day of treatment, basal 72.6 UI/ml): 32.1 UI/ml | Headache (study group, 21st day of treatment, Luteolin 50 mg oral twice a day, basal 21%): 11% | Cystitis (study group, 21st day of treatment, Luteolin 50 mg oral twice a day, basal 23%): 5% | Chronic pelvic pain VAS<3 [2]: 100 | Dysmenorrhea VAS<3 [2]: 100 | Dyspareunia VAS<=3 [2]: 100
